# Measured values taken from patent publication US20120129822A1, “COMPOSITION CONTAINING DIOSGENIN AND USE THEREOF TO IMPROVE AT LEAST ONE OF COGNITIVE DEFICITS ASSOCIATED WITH MENOPAUSAL SYNDROME” (TL & GM Chemical Company, priority 2010, published 2012).
# Entries after “also recorded” stand apart in the source; their conditions may differ.
# Columns and labels:
# [1] = system: OVX rats having clinical signs of osteoporosis; conditions: sustained delivery; cited from earlier work
# OVX mice = conditions: cited from earlier work
# OVX rats with anxiety = assay: Learned helplessness test (day-2 active avoidance test, shuttle box), OVX rats with anxiety; format: in vivo, female Wistar rats; conditions: 23 days; for Avoidance response (number) / Failure response (number) / Escape response (number): 16 trials, mean±SEM
# Experimental: (§1) Three daily dosages of diosgenin, i.e., 10, 50, or 100 mg/kg, were administered to the experimental animals in the following experiments. A proper amount of diosgenin (Sigma, USA, required for formulating a respective one of the three daily dosages) was mixed with 1 g of toast or raw dough (prepared by mixing flour and water in a ratio of 2:1 (wt/wt)), thereby forming a diosgenin-containing pellet. The experimental animals were orally administered with the diosgenin-containing pellets, starting about 4 weeks after ovariectomy.
# (§2) A shuttle box used in Example 1 (AccuScan, USA) is composed of two equal compartments. Each of the compartments has a grid floor made of stainless steel bars. The compartments are separated by a wall having a central door. Specifically, the central door can be closed to separate the two compartments, or can be opened to allow the experimental animals to move freely between the two compartments therethrough. A conditioned stimulus (CS, a stimulus consisting of a tone (75 db) and a light (250 lux) and lasting 3 seconds) and an unconditioned stimulus (UCS, an electric foot shock (0.5 mA) lasting a maximum of 10 seconds) were administered to the experimental animals from the shuttle box under control of a computer. The shuttle box was thoroughly cleaned using 20% ethanol and was subsequently thoroughly dried before each of the experimental animals was tested.
# (§3) The OVX rats with and without anxiety, which were identified in the preceding section A, were respectively randomly subdivided into 4 groups including a control group and three experimental groups (respectively designated as diosgenin groups 1-3). The diosgenin-containing pellets (made using diosgenin and toast), which were prepared according to the method as described in the section entitled “2. Diosgenin-containing pellets” of the Experimental Materials, respectively comprised the three daily dosages of diosgenin (i.e., 10, 50, and 100 mg/kg), and were respectively administered to the OVX rats in diosgenin groups 1-3 daily. In other words, the daily dosage of diosgenin administered to the OVX rats in diosgenin group 1 was 10 mg/kg, the daily dosage of diosgenin administered to the OVX rats in diosgenin group 2 was 50 mg/kg, and the daily dosage of diosgenin administered to the OVX rats in diosgenin group 3 was 100 mg/kg. The toast without diosgenin was administered daily to the OVX rats in the control group. After 23 days of administration, the OVX rats in each group were subjected to the following learned helplessness test so as to investigate the effect of diosgenin on the learning ability of the OVX rats with and without anxiety under stress.
# (§4) The learned helplessness test in this example was conducted substantially according to the methods as described in W. F. Wang et al. (2007), Chin. J. Physiol., 50:63-68 and Y. T. Lee et al. (2008), Neuroreport, 19:1243-1247, except for minor modifications. The learned helplessness test in this example is generally described as follows.
# (§5) The respective OVX rat was placed in one of the two compartments of the shuttle box, and was allowed to explore the two compartments through the central door, which was opened, for 1 minute. Afterward, the central door was closed. The respective OVX rat was subjected to 40 trials of inescapable CS-UCS pairing. Specifically, each of the 40 trials of inescapable CS-UCS pairing consisted of a CS and a subsequent UCS, and a mean interval between the two successive trials of inescapable CS-UCS pairing was 60 seconds (the interval between the two successive trials of inescapable CS-UCS pairing ranged from 50 to 70 seconds).
# (§6) The respective OVX rat was placed in one of the two compartments of the shuttle box, and was allowed to explore the two compartments through the central door, which was opened, for 1 minute. Subsequently, the respective OVX rat was subjected to 16 trials of escapable CS-UCS pairing. […]
# OVX rats without anxiety = assay: Learned helplessness test (day-2 active avoidance test, shuttle box), OVX rats without anxiety; format: in vivo, female Wistar rats; conditions: for Avoidance response (number) / Escape response (number) / Failure response (number): 23 days, 16 trials, mean±SEM
# Experimental: as §1, §2, §3, §4, §5, §6
# [2] = system: breast cancer-burdened mice; conditions: cited from earlier work
# OVX rats = assay: Object recognition test in open box; format: in vivo, female Wistar rats
# Experimental: Three daily dosages of diosgenin, i.e., 10, 50, or 100 mg/kg, were administered to the experimental animals in the following experiments. A proper amount of diosgenin (Sigma, USA, required for formulating a respective one of the three daily dosages) was mixed with 1 g of toast or raw dough (prepared by mixing flour and water in a ratio of 2:1 (wt/wt)), thereby forming a diosgenin-containing pellet. The experimental animals were orally administered with the diosgenin-containing pellets, starting about 4 weeks after ovariectomy. The open box is made of black polyvinyl plastics. Three objects, which are respectively designated as A1, A2, and A3, are identical in terms of size, color, shape, and material, and have no specific scents. Each of the objects A1, A2, A3 was placed on the bottom of the open box and was spaced apart from a respective one of three corners C1, C2, C3 of the open box by 21 cm (see FIG. 2(A)). The object A3 was later replaced with an object B different from the object A3 in terms of size, color, shape, and material, and having no specific scents (see FIG. 2(B)). Prior to an experiment, each of the objects A1, A2, A3, B was unfamiliar to the experimental animals. The open box and the objects A1, A2, A3, B were thoroughly cleaned using 20% ethanol, and were subsequently thoroughly dried before each of the experimental animals was tested. After the female Wistar rats were raised in the animal room for 4 weeks, the same were subjected to ovariectomy according to the method as described in the section, entitled “1. Ovariectomy”, of the General Experimental Procedure. On the 29th day after the surgery, the OVX rats were randomly divided into four groups including a control group (n=20) and three experimental groups (respectively designated as diosgenin group 1 (n=20), diosgenin group 2 (n=12), and diosgenin group 3 (n=19)). The diosgenin-containing pellets (made using diosgenin and raw dough), which were prepared according to the method as described in the section entitled “2. […]
# [3] = diosgenin group 1, 10 mg/kg daily oral, n=12
# [4] = diosgenin group 2, 50 mg/kg daily oral, n=11
# [5] = diosgenin group 3, 100 mg/kg daily oral, n=11
# [6] = diosgenin group 1, 10 mg/kg daily oral, n=7
# [7] = diosgenin group 2, 50 mg/kg daily oral, n=6
# [8] = diosgenin group 3, 100 mg/kg daily oral, n=6
compound,measurement,setting,value
"C[C@]12CC[C@H](O)CC1=CC[C@@H]1[C@@H]2CC[C@]2(C)C(=O)CC[C@@H]12 [DHEA, dehydroepiandrosterone]",Bone loss after ovariectomy,[1],significantly reduced
same,Side effects on other body organs,[1],without inducing side effects on other body organs
C[C@@H]1CC[C@@]2(OC1)O[C@H]1C[C@H]3[C@@H]4CC=C5C[C@@H](O)CC[C@]5(C)[C@H]4CC[C@]3(C)[C@H]1[C@@H]2C [diosgenin],Epidermal thickness of OVX mice,OVX mice; animal model of menopause,capable of improving epidermal thickness
same,Keratinocyte proliferation in aged skin,OVX mice; animal model of menopause,able to restore keratinocyte proliferation in aged skin
same,Degree of fat accumulation,OVX mice,without altering the degree of fat accumulation
same,Avoidance response (number),OVX rats with anxiety; [3],2.5 ± 0.9 number
same,Failure response (number),OVX rats with anxiety; [3],4.2 ± 1.3 number
same,Escape response (number),"OVX rats with anxiety; diosgenin group 1, 10 mg/kg daily oral, n=12, p<0.05 vs control",9.3 ± 1.3 number
same,Avoidance response (number),OVX rats with anxiety; [4],1.3 ± 0.5 number
same,Escape response (number),OVX rats with anxiety; [4],10.4 ± 1.4 number
same,Failure response (number),OVX rats with anxiety; [4],4.4 ± 1.4 number
same,Avoidance response (number),OVX rats with anxiety; [5],1.4 ± 0.4 number
same,Escape response (number),OVX rats with anxiety; [5],13.2 ± 0.6 number
same,Failure response (number),OVX rats with anxiety; [5],1.4 ± 0.5 number
same,Learning ability of the OVX rats with anxiety (result in words),OVX rats with anxiety; oral diosgenin-containing pellets,capable of significantly improving the learning ability of the OVX rats with anxiety
same,Avoidance response (number),OVX rats without anxiety; [6],1.3 ± 0.6 number
same,Escape response (number),OVX rats without anxiety; [6],11.7 ± 1.4 number
same,Failure response (number),OVX rats without anxiety; [6],3.0 ± 1.6 number
same,Avoidance response (number),OVX rats without anxiety; [7],1.2 ± 0.4 number
same,Escape response (number),OVX rats without anxiety; [7],13.8 ± 0.5 number
same,Failure response (number),OVX rats without anxiety; [7],0.7 ± 0.3 number
same,Avoidance response (number),OVX rats without anxiety; [8],2.5 ± 0.8 number
same,Escape response (number),OVX rats without anxiety; [8],12.5 ± 1.1 number
same,Failure response (number),OVX rats without anxiety; [8],0.8 ± 0.7 number
same,Number of avoidance response and number of escape response versus control group (result in words),"OVX rats without anxiety; diosgenin groups 1-3 (10, 50, 100 mg/kg daily oral)",not obviously different from those regarding the OVX rats in the control group
same,Bone loss after ovariectomy,[1],significantly reduced
same,Side effects on other body organs,[1],without inducing side effects on other body organs
same,Tumor growth,[2],does not accelerate the tumor growth
same,"Exploration time spent on object B in the third trial, comparison among groups (result in words)","OVX rats; diosgenin group 2, 50 mg/kg daily oral, 26 days, FIG. 3",the longest
same,Exploration time spent on object B in the third trial versus object A3 in the second trial (result in words),"OVX rats; each of diosgenin groups 1-3 (10, 50, 100 mg/kg daily oral, 26 days), FIG. 3",longer than exploration time spent on object A3 in the second trial
same,Ability to memorize a familiar object and to recognize a difference between familiar and novel object (result in words),"OVX rats; oral diosgenin-containing pellets, 26 days","able to improve the ability to memorize a familiar object and the ability to recognize a difference between the familiar object and a novel object; also recorded: able to improve the ability to memorize a familiar object, and the ability to recognize a difference between the familiar object and a novel object"
estrogen,Bone loss after ovariectomy,[1],significantly reduced
same,Side effects on other body organs,[1],without inducing side effects on other body organs
